Measured values reported in US9133209B2, “Insecticidal 4-amino-thieno[2,3-D]-pyrimidine compounds and methods of their use” (priority 2009, dated 2015).

Assays:
Format in all cases: in vivo
[1] = system: Cowpea Aphid (aphis craccivora); assay: Cowpea aphid spray test on potted cowpea plants; conditions: for mortality at 300 ppm: Aphis craccivora, cowpea aphid on potted cowpea plants, sprayed, assessed after 24, 72 and 120 hours, read-out: mortality in comparison with untreated controls; for activity in [%]: Cow pea aphid, 300 ppm, scale 0% no biological activity to 100% total control
Experimental: (§1) Under general conditions, if not otherwise specified, most test solutions are prepared as follow: The active compound is dissolved at the desired concentration in a mixture of 1:1 (vol:vol) distilled water:acetone. The test solution is prepared at the day of use.
(§2) Test solutions are prepared in general at concentrations of 1000 ppm, 500 ppm, 300 ppm, 100 ppm and 30 ppm (wt/vol).
B.1 Cowpea Aphid (aphis craccivora)
Potted cowpea plants colonized with approximately 100-150 aphids of various stages were sprayed after the pest population has been recorded. Population reduction was assessed after 24, 72, and 120 hours.

[2] = system: Spider Mite (Tetranychus spp.); assay: Spider mite contact/oral activity on potted cotton plants; conditions: for activity in [%]: Spider mite, 300 ppm, scale 0% no biological activity to 100% total control; for mortality at 300 ppm: Tetranychus, po, spider mites on potted cotton plants, sprayed, assessed after 24, 72 and 120 hours, read-out: mortality in comparison with untreated controls
Experimental: as §1, §2
B.2 Spider Mite (Tetranychus spp.)
Potted cotton plants colonized with approximately 50 mites of various stages are sprayed after the pest population has been recorded. Population reduction (or increase) after 24, 72, and 120 hours is assessed.

[3] = system: Rice Brown Plant Hopper (Nilaparvata lugens); assay: Rice brown plant hopper test on sprayed rice seedlings; conditions: for mortality at 300 ppm: Nilaparvata lugens adults on sprayed rice seedlings, 72 hours, read-out: mortality in comparison with untreated controls; for activity in [%]: Nilaparvata lugens, 300 ppm, scale 0% no biological activity to 100% total control
Experimental: B.3 Rice Brown Plant Hopper (Nilaparvata lugens)
Rice seedlings were cleaned and washed 24 hours before spraying. The active compounds were formulated in 50:50 acetone:water (vol:vol) and 0.1% vol/vol surfactant (EL 620) was added. Potted rice seedlings were sprayed with 5 ml test solution, air dried, placed in cages and inoculated with 10 adults. Treated rice plants were kept at about 28-29° C. and relative humidity of about 50-60%. Percent mortality was recorded after 72 hours.

[4] = system: Yellow Fever Mosquito (Aedes aegypti) neonate larvae; assay: Yellow fever mosquito larval motility assay in microtiter plates
Experimental: B.4. Activity Against Yellow Fever Mosquito (Aedes aegypti)
The compounds were formulated in 100% DMSO and were tested in microtiter plates containing 180 ul 1× Luria Broth media and 10 neonate A. aegypti larvae. The efficacy of a compound was determined based on the motility of the larvae as compared to average motility of control wells containing DMSO only. Compounds with >80% reduction in motility at a concentration of 10 ppm were tested in a dose response assay to determine EC50 values.

[5] = system: Ctenocephalides felis fleas; assay: Rat ectoparasiticide model (flea infestation, topical treatment); conditions: for Efficacy in [%]: Ctenocephalides felis on rats; for reduction of flea counts (% efficacy): rats, topical, 48 hours post-treatment, average, n=2 replicas
Experimental: B.5. Activity in Rat Ectoparasiticide Model
Rats were infested with 50 Ctenocephalides felis fleas. Approximately twenty four hours later rats (3 per group) were treated topically with test compounds at doses of 20 mg/kg or 10 mg/kg body weight. Placebo (vehicle) and positive control groups were included in each study. Forty eight hours post-treatment, fleas were collected from each rat using a flea comb. The percent efficacy per treatment group was calculated using the following formula: % efficacy=100×(C−T)/C
where C is the geometric mean of live fleas recovered in the placebo group and T is the geometric mean of live fleas recovered in the respective treatment group.

SMILES | mortality at 300 ppm [1] | activity in [%] [1] | activity in [%] [2] | activity in [%] [3] | other results
CC(Nc1ncnc2scc(Cl)c12)c1ccc(SC(F)(F)F)cc1 (centres unmarked) [C.3] | > 80% | 100% | 90% | 100% | mortality at 300 ppm [2]: > 80%; mortality at 300 ppm [3]: > 80%; EC50 (section headed 'Activity at 1 [ppm]') [4]: 0.29 ppm
CC(Nc1ncnc2scc(Cl)c12)c1ccc(SC(F)(F)C(F)(F)F)cc1 (centres unmarked) [C.6] | > 80% | – | – | – | mortality at 300 ppm [2]: > 80%; mortality at 300 ppm [3]: > 80%
CSc1ccc(C(C)Nc2ncnc3scc(Cl)c23)cc1 (centres unmarked) [CE.1, reference compound] | – | – | – | 0% | –
C[C@@H](Nc1ncnc2scc(Cl)c12)c1ccc(SC(F)(F)F)cc1 [C.3-R] | – | 0% | 0% | 0% | –
FC(F)(F)Sc1ccc(CNc2ncnc3scc(Cl)c23)cc1 [C.1] | > 80% | – | – | – | –
CC(Nc1ncnc2scc(Cl)c12)c1ccc(SC(F)F)cc1 (centres unmarked) [C.2] | > 80% | – | – | – | –
C[C@H](Nc1ncnc2scc(Cl)c12)c1ccc(OC(F)(F)F)cc1 [CE.2, reference compound] | – | – | 50% | – | Efficacy in [%] ([5]; dosage 10 mg/kg): 70%; Efficacy in [%] ([5]; dosage 20 mg/kg): 82%
C[C@H](Nc1ncnc2scc(Cl)c12)c1ccc(SC(F)(F)F)cc1 [C.3-S, (5-Chloro-thieno[2,3-d]pyrimidin-4-yl)-[(S)-1-(4-trifluoromethylsulfanyl-phenyl)-ethyl]-amine] | – | 100% | 90% | 100% | EC50 (section headed 'Activity at 1 [ppm]') [4]: 0.21 ppm; Efficacy in [%] ([5]; dosage 10 mg/kg): 71%; Efficacy in [%] ([5]; dosage 20 mg/kg): 89%; reduction of flea counts (% efficacy) ([5]; 10 mg/kg): 71%; reduction of flea counts (% efficacy) ([5]; 20 mg/kg): 89%
CC(Nc1ncnc2scc(Cl)c12)c1ccc([S+]([O-])C(F)(F)F)cc1 (centres unmarked) [C.4] | > 80% | – | – | – | –
CC(Nc1ncnc2scc(Cl)c12)c1ccc(SCC(F)(F)F)cc1 (centres unmarked) [C.5] | > 80% | – | – | – | –
